Assay results reported in ChEMBL document CHEMBL5247678, “Design, Synthesis, and Structure-Activity Relationships of Biaryl Anilines as Subtype-Selective PPAR-alpha Agonists” (ACS Med Chem Lett, 2023).

Key:
[1] = Cytotoxicity against human RPE cells measured upto 50 uM; assay type: toxicity, cell-based
[2] = Cytotoxicity against human RPE cells assessed as cell viability at 50 uM; assay type: toxicity, cell-based

SMILES: O=C(O)c1cc(F)cc(NCc2ccc(-c3ccccc3C(F)(F)F)cc2)c1
- Activity [1]: Non-Toxic

SMILES: O=C(O)c1cc(F)cc(NCc2ccc(-c3ccccc3)cc2)c1
- Activity [1]: Non-Toxic

SMILES: O=C(O)c1cc(F)cc(NCc2ccc(-c3ccc(C(F)(F)F)cc3)cc2)c1
- Activity [1]: Non-Toxic

SMILES: O=C(O)c1cc(F)cc(NCc2cn(-c3ccc(C(F)(F)F)cc3)nn2)c1
- Activity [1]: Non-Toxic
- Activity [2]: Toxic
